Results taken from PubChem BioAssay AID328 (DTP/NCI, 2004).
“And” between values parts separate entries of the source, which are not always exact repeats. Equal entries are not always repeated. Inconclusive results and toxic doses are left out.

System: BDF1 mice, P388 leukemia ip, median survival T/C
Assay: NCI In Vivo Anticancer Drug Screen. Data for tumor model P388 Leukemia (intraperitoneal) in B6D2F1 (BDF1) mice
Conditions: endpoint: median survival time, higher = longer survival
In short: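 Compound-treated tumour-bearing mice were compared with vehicle-treated controls. Survival was recorded, and the value is the treated-group measurement divided by the control-group measurement (T/C).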

[1] = dose: 6.25 mg/kg/injection, schedule: Q01DX009 (ip), vehicle: saline with Tween-80
[2] = dose: 50.0 mg/kg/injection, schedule: Q01DX009 (ip), vehicle: saline with Tween-80
[3] = dose: 100.0 mg/kg/injection, schedule: Q01DX009 (ip), vehicle: saline with Tween-80
[4] = dose: 200.0 mg/kg/injection, schedule: Q01DX009 (ip), vehicle: saline with Tween-80

Cc1nc(N)nc(N)c1-c1ccc(Cl)c(Cl)c1
T/C (dose: 0.85 mg/kg/injection, schedule: Q01DX009 (ip), vehicle: saline with Tween-80): 100 % of control | T/C (dose: 1.0 mg/kg/injection, schedule: Q02DX005 (ip), vehicle: Klucel (hydroxypropylcellulose) (HPC)): 103 % of control | T/C (dose: 1.0 mg/kg/injection, schedule: Q02DX009 (ip), vehicle: Klucel (hydroxypropylcellulose) (HPC)): 107 % of control | T/C (dose: 2.0 mg/kg/injection, schedule: Q02DX005 (ip), vehicle: Klucel (hydroxypropylcellulose) (HPC)): 111 % of control | T/C (dose: 2.0 mg/kg/injection, schedule: Q02DX009 (ip), vehicle: Klucel (hydroxypropylcellulose) (HPC)): 117 % of control | T/C (dose: 3.0 mg/kg/injection, schedule: Q01DX009 (ip), vehicle: saline with Tween-80): 122 % of control | T/C (dose: 4.0 mg/kg/injection, schedule: Q02DX005 (ip), vehicle: Klucel (hydroxypropylcellulose) (HPC)): 101 % of control | T/C (dose: 4.0 mg/kg/injection, schedule: Q02DX009 (ip), vehicle: Klucel (hydroxypropylcellulose) (HPC)): 121 % of control | T/C (dose: 4.5 mg/kg/injection, schedule: Q01DX009 (ip), vehicle: saline with Tween-80): 118 % of control | T/C [1]: 86 % of control | T/C (dose: 8.0 mg/kg/injection, schedule: Q02DX005 (ip), vehicle: Klucel (hydroxypropylcellulose) (HPC)): 97 % of control | T/C (dose: 8.0 mg/kg/injection, schedule: Q02DX009 (ip), vehicle: Klucel (hydroxypropylcellulose) (HPC)): 154 % of control | T/C (dose: 16.0 mg/kg/injection, schedule: Q02DX009 (ip), vehicle: Klucel (hydroxypropylcellulose) (HPC)): 117 % of control | T/C (dose: 25.0 mg/kg/injection, schedule: Q04DX003 (ip), vehicle: saline with Tween-80): 172 % of control | T/C (dose: 37.5 mg/kg/injection, schedule: Q04DX003 (ip), vehicle: saline with Tween-80): 118 % of control

O=[N+]([O-])c1ccc(N/N=C/C(Br)(Br)Br)c([N+](=O)[O-])c1
T/C [2]: 111 % of control | T/C [3]: 104 % of control | T/C [4]: 103 % of control

CCCCCCCSc1ncnc2nc[nH]c12
T/C [3]: 100 % of control | T/C (dose: 100.0 mg/kg/injection, schedule: Q04DX003 (ip), vehicle: saline with Tween-80): 86 % of control | T/C [4]: 86 % of control | T/C (dose: 200.0 mg/kg/injection, schedule: Q04DX003 (ip), vehicle: saline with Tween-80): 95 % of control | T/C (dose: 400.0 mg/kg/injection, schedule: Q01DX009 (ip), vehicle: saline with Tween-80): 109 % of control | T/C (dose: 400.0 mg/kg/injection, schedule: Q04DX003 (ip), vehicle: saline with Tween-80): 100 % of control

Oc1cc(CN(CCCl)CCCl)c(O)cc1CN(CCCl)CCCl
T/C (dose: 0.63 mg/kg/injection, schedule: Q01DX010 (ip), vehicle: saline): 170 % of control | T/C (dose: 1.25 mg/kg/injection, schedule: Q01DX010 (ip), vehicle: saline): 163 % of control and 210 % of control | T/C (dose: 2.5 mg/kg/injection, schedule: Q01DX010 (ip), vehicle: saline): 177 % of control and 220 % of control | T/C (dose: 5.0 mg/kg/injection, schedule: Q01DX010 (ip), vehicle: saline): 165 % of control

CCN(CC)CC(COC)Oc1cc(C)ccc1C(C)C (configuration not stated)
T/C [2]: 100 % of control | T/C [3]: 91 % of control

C[n+]1ccc2ccccc2c1CCCc1nccc2ccccc12
T/C [1]: 100 % of control | T/C (dose: 12.5 mg/kg/injection, schedule: Q01DX009 (ip), vehicle: saline with Tween-80): 120 % of control | T/C (dose: 25.0 mg/kg/injection, schedule: Q01DX009 (ip), vehicle: saline with Tween-80): 116 % of control

COc1ccc2[nH]c(C)c(SC)c2c1
T/C (dose: 50.0 mg/kg/injection, schedule: Q04DX002 (ip), vehicle: saline with Tween-80): 98 % of control | T/C (dose: 100.0 mg/kg/injection, schedule: Q04DX002 (ip), vehicle: saline with Tween-80): 100 % of control | T/C (dose: 200.0 mg/kg/injection, schedule: Q04DX002 (ip), vehicle: saline with Tween-80): 89 % of control

CN(C)C(=O)NNC(=O)N(C)C
T/C (dose: 100.0 mg/kg/injection, schedule: Q01DX009 (ip), vehicle: saline): 104 % of control | T/C (dose: 100.0 mg/kg/injection, schedule: Q04DX003 (ip), vehicle: saline): 100 % of control | T/C (dose: 200.0 mg/kg/injection, schedule: Q01DX009 (ip), vehicle: saline): 95 % of control | T/C (dose: 200.0 mg/kg/injection, schedule: Q04DX003 (ip), vehicle: saline): 100 % of control | T/C (dose: 400.0 mg/kg/injection, schedule: Q01DX009 (ip), vehicle: saline): 95 % of control | T/C (dose: 400.0 mg/kg/injection, schedule: Q04DX003 (ip), vehicle: saline): 100 % of control
